According to US20060088509A1, “Isolated clk-1 -/- cells from clk-1 heterozygous animals and their use in treating oxidative stress disorders” (priority 2004, published 2006):

How the values were obtained:
[1] = tested on: mclk1 −/− ES cells; assay: Sensitivity to cell death-inducing agents (trypan blue exclusion); type: cell-based, mouse; details: for Sensitivity of mclk1 −/− ES cells to the cell death-inducing agent: compared with mclk1 +/+ cells, etoposide 20 μM 24 h, anisomysin 2 μM 24 h, staurosporine 0.4 μM 24 h, all-trans retinoic acid 1 μM 96 h, sodium azide 15 μM 24 h
Experimental: We tested serum starvation (48 hours) and treatment with etoposide (20 μM, 24 hours), anisomysin (2 μM, 24 hours), staurosporine (0.4 μM; 24 hours), all-trans retinoic acid (1 μM, 96 hours) and sodium azide (15 μM, 24 hours).

[2] = tested on: mclk1 −/− ES cells; assay: Oxygen consumption; type: cell-based, mouse; details: for Oxygen consumption, percent of the wild-type phenotype: number in brackets; for Effect on low respiration, slow growth, and LIF resistance phenotypes: sentence also covers growth and LIF assays
[3] = tested on: mclk1 +/+ ES cells; assay: Reactive oxygen species measurement (DCHF-DA fluorescence); type: cell-based, mouse; details: for Basal ROS levels, percent of the wild-type phenotype / Induced ROS levels, percent of the wild-type phenotype: number in brackets; for Induced ROS levels: oxidative stress induced by 0.1 mM FeSO4 and 0.2 mM sodium ascorbate
Experimental: (§1) For the fluorimetric measurement of ROS, cells were incubated with 10 μM DCHF-DA (Molecular Probes) for 20 min at 37° C. ROS levels were measured fluorimetrically with excitation and emission wavelenghts of 495 nm and 530 nm, respectively. Oxidative stress was induced by incubating the cells loaded with DCHF-DA with 0.1 mM FeSO4 and 0.2 mM sodium ascorbate.

[4] = tested on: mclk1 −/− ES cells; assay: as above; type: cell-based, mouse; details: for Basal ROS levels, percent of the wild-type phenotype / Induced ROS levels, percent of the wild-type phenotype: number in brackets; for Induced ROS levels: oxidative stress induced by 0.1 mM FeSO4 and 0.2 mM sodium ascorbate
Experimental: as §1

[5] = tested on: mclk1 +/+ ES cells; assay: Oxygen consumption; type: cell-based, mouse; parameters: Oxygen consumption: scale not given here; details: for Oxygen consumption, percent of the wild-type phenotype: number in brackets
[6] = tested on: mclk1 +/+ ES cells; assay: LIF requirement assay; type: cell-based, mouse; parameters: LIF requirement [% undifferentiated colonies, n = 300]: dose or concentration left out as unconfirmed; details: for LIF requirement [% undifferentiated colonies, n = 300]: day 3, medium with LIF; for LIF requirement, percent of the wild-type phenotype: number in brackets
Experimental: (§2) ES cells were plated at a density of 500 cells/cm^2 in gelatin-coated 6-well plates in ES cell medium containing various concentration of LIF. Three days after inoculation, the proportion of undifferentiated colonies was determined after scoring the morphology of 300 randomly chosen colonies.

[7] = tested on: mclk1 −/− ES cells; assay: LIF requirement assay; type: cell-based, mouse; details: number in brackets
Experimental: as §2

[8] = tested on: mclk1 +/+ ES cells; assay: Cell death assay: resistance to menadione (trypan blue exclusion); type: cell-based, mouse; details: for Resistance to menadione [% viability]: 24 hours in menadione 6 μM, with the supplement named as label; for Resistance to menadione, percent of the wild-type phenotype: number in brackets
Experimental: (§3) Cells were seeded in six-well dishes at 1×10^5/well in ES cell medium with or without supplements (UQ9: 0.16 μM, sodium pyvurate: 110 mg/L). At different time points, the cells were trypsinized and counted with a hemocytometer. The cells were also analyzed by the trypan blue exclusion method 24 hours after treatment with menadione (6 μM).

[9] = tested on: mclk1 −/− ES cells; assay: as above; type: cell-based, mouse; details: for Resistance to menadione [% viability]: 24 hours in menadione 6 μM, with the supplement named as label; for Resistance to menadione, percent of the wild-type phenotype: number in brackets
Experimental: as §3

[10] = tested on: mclk1 +/+ ES cells; assay: Growth rate (cell multiplication); type: cell-based, mouse; details: for Cell multiplication, percent of the wild-type phenotype: number in brackets; for Cell multiplication: number of cells on day 5, day 1 being 1 × 10^5
Experimental: as §3

[11] = tested on: mclk1 −/− ES cells; assay: Growth rate (cell multiplication); type: cell-based, mouse; details: for Cell multiplication, percent of the wild-type phenotype: number in brackets; for Cell multiplication: number of cells on day 5, day 1 being 1 × 10^5
Experimental: as §3

[12] = biological target: T1, Mitochondrial complex II (Mus musculus, UniProt Q9CQA3+Q9CXV1+Q9CZB0); assay: Mitochondrial complex II activity of mclk1 −/− ES cells; type: biochemical
T1 construct: mitochondria (containing 50 μg protein) were pre-incubated with reaction buffer; endogenous in cells; host or cells: mitochondria isolated from mouse mclk1 +/+ and mclk1 -/- ES cells
Experimental: Mitochondrial complex II activity was measured as follows: mitochondria (containing 50 μg protein) were pre-incubated with reaction buffer ([…]) for 10 minutes at room temperature. The reaction was started by adding 2 μg/ml Antimycin A, 2 μg/ml Rotenone, 2 mM KCN, 50 μM 2,6-Dichlorophenolindophenol (Sigma) in the presence or absence of 65 μM Q1. The linear decrease in absorbance at 600 nm was recorded (ε=21 mM-1 cm^−1).

[13] = mclk1 −/− ES cells, number in brackets

T1 sequence (Q8K2B3 43-664 partner): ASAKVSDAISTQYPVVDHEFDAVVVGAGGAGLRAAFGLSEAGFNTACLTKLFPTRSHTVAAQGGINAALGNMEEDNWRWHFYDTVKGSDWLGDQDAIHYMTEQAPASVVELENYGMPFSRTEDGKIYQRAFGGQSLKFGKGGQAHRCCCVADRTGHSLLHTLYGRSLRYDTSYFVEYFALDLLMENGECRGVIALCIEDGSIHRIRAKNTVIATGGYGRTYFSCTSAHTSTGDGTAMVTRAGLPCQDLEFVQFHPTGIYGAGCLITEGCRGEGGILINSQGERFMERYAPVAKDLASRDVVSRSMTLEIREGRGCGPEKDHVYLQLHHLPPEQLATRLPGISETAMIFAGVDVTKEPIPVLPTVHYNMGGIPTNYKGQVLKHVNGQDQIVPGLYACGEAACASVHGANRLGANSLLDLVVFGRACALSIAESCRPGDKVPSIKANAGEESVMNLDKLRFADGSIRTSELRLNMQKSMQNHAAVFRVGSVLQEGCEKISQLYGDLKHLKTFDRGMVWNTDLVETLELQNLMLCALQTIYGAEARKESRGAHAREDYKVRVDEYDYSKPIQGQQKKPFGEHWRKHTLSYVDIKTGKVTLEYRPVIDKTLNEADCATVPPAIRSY
T1 sequence (Q9CQA3 31-282): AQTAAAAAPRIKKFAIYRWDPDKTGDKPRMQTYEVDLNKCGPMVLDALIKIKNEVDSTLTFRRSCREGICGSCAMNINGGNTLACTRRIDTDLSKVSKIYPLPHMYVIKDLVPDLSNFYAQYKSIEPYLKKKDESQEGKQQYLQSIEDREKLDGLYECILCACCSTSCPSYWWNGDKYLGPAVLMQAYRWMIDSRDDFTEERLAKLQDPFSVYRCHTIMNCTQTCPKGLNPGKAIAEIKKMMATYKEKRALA
T1 sequence (Q9CZB0 30-169): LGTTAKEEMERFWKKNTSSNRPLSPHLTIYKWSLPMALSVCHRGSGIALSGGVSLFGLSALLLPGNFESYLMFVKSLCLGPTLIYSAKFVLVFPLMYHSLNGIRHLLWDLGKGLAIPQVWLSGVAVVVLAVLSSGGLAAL
T1 sequence (Q9CXV1 57-159): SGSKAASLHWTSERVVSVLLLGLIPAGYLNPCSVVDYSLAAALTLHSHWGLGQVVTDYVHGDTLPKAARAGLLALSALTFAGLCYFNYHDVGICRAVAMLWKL

CN[C@@H]1C[C@H]2O[C@@](C)([C@@H]1OC)n1c3ccccc3c3c4c(c5c6ccccc6n2c5c31)C(=O)NC4 [staurosporine] was tested, and the “Sensitivity of mclk1 −/− ES cells to the cell death-inducing agent” value (“Sensitivity of mclk1 −/− ES cells” below) [1] was “neither resistant nor hyper-sensitive”.
With CC(=O)C(=O)[O-].[Na+] [Sodium pyruvate, sodium pyruvate] the Oxygen consumption [2] was 7.9 ± 0.4 103 μl O2/sec/μg of protein, the “Oxygen consumption, percent of the wild-type phenotype” value (shortened to “Oxygen consumption, percent”) [2] was “(85) percent of the wild-type phenotype” and the “Effect on low respiration, slow growth, and LIF resistance phenotypes” value [2] was “ameliorated”. The “Basal ROS levels” value [3] was 4.1 ± 0.3 Fluorescence Unit × 100/μg pro, the “Basal ROS levels, percent of the wild-type phenotype” value (shortened to “Basal ROS levels, percent”) [3] was “(100) percent of the wild-type phenotype” and the “Induced ROS levels, percent of the wild-type phenotype” value (“Induced ROS levels, percent” for short) [3] was “(102) percent of the wild-type phenotype”. The “Induced ROS levels” value [3] was 11.8 ± 1.2 Fluorescence Unit × 100/μg Pro, the “Basal ROS levels” value [4] was 2.3 ± 0.2 Fluorescence Unit × 100/μg pro and the “Basal ROS levels, percent” value [4] was “(57) percent of the wild-type phenotype”. For the same compound, the “Induced ROS levels, percent” value [4] was “(70) percent of the wild-type phenotype”, the “Induced ROS levels” value [4] was 8.1 ± 1.1 Fluorescence Unit × 100/μg Pro and the Oxygen consumption [5] was 9.1 ± 0.4 103 μl O2/sec/μg of protein. The “Oxygen consumption, percent” value [5] was “(98) percent of the wild-type phenotype”, the “LIF requirement [% undifferentiated colonies, n = 300]” value [6] was 39.3 ± 12.7 % undifferentiated colonies and the “LIF requirement, percent of the wild-type phenotype” value (from here on “LIF requirement, percent”) [6] was “(90) percent of the wild-type phenotype”. The “LIF requirement, percent” value [7] was “(418) percent of the wild-type phenotype”, the “Resistance of mclk1 −/− cells to cell death-inducing agents upon treatment with sodium pyruvate” value ([1]; etoposide, anisomycin, all-trans retinoic acid, serum withdrawal) was “indistinguishable from that of the mclk1 +/+ cells” and the “Resistance to menadione [% viability]” value [8] was 23 ± 7.5 % viability. For the same compound, the “Resistance to menadione, percent of the wild-type phenotype” value (shortened to “Resistance to menadione, percent”) [8] was “(101) percent of the wild-type phenotype”, the “Resistance to menadione [% viability]” value [9] was 68.9 ± 6.5 % viability and the “Resistance to menadione, percent” value [9] was “(304) percent of the wild-type phenotype”. For the same compound, the “Cell multiplication, percent of the wild-type phenotype” value (“Cell multiplication, percent” below) [10] was “(99) percent of the wild-type phenotype”, the Cell multiplication [10] was 25.0 ± 4.8 ×10^5 cells and the “Cell multiplication, percent” value [11] was “(75) percent of the wild-type phenotype”. For the same compound, the Cell multiplication [11] was 18.9 ± 2.8 ×10^5 cells.
COc1cc([C@@H]2c3cc4c(cc3[C@@H](O[C@@H]3O[C@@H]5CO[C@@H](C)O[C@H]5[C@H](O)[C@H]3O)[C@H]3COC(=O)[C@H]23)OCO4)cc(OC)c1O [etoposide] was tested, and the “Sensitivity of mclk1 −/− ES cells” value [1] was “resistant”.
For COC1=C(OC)C(=O)C(C/C=C(\C)CC/C=C(\C)CC/C=C(\C)CC/C=C(\C)CC/C=C(\C)CC/C=C(\C)CC/C=C(\C)CC/C=C(\C)CC/C=C(\C)CCC=C(C)C)=C(C)C1=O [UQ9, ubiquinone], the Oxygen consumption [2] was 6.8 ± 0.7 103 μl O2/sec/μg of protein, the “Oxygen consumption, percent” value [2] was “(72) percent of the wild-type phenotype” and the “Effect on low respiration, slow growth, and LIF resistance phenotypes” value [2] was “ameliorated”. For the same compound, the “Basal ROS levels” value [3] was 3.8 ± 0.2 Fluorescence Unit × 100/μg pro, the “Basal ROS levels, percent” value [3] was “(94) percent of the wild-type phenotype” and the “Induced ROS levels, percent” value [3] was “(100) percent of the wild-type phenotype”. The “Induced ROS levels” value [3] was 11.5 ± 0.5 Fluorescence Unit × 100/μg Pro, the “Basal ROS levels” value [4] was 2.4 ± 0.3 Fluorescence Unit × 100/μg pro and the “Basal ROS levels, percent” value [4] was “(59) percent of the wild-type phenotype”. The “Induced ROS levels, percent” value [4] was “(57) percent of the wild-type phenotype”, the “Induced ROS levels” value [4] was 6.7 ± 1.2 Fluorescence Unit × 100/μg Pro and the Oxygen consumption [5] was 8.96 ± 0.8 103 μl O2/sec/μg of protein. For the same compound, the “Oxygen consumption, percent” value [5] was “(96) percent of the wild-type phenotype”, the “LIF requirement [% undifferentiated colonies, n = 300]” value [6] was 39.0 ± 18.5 % undifferentiated colonies and the “LIF requirement, percent” value [6] was “(90) percent of the wild-type phenotype”. For the same compound, the “LIF requirement, percent” value [7] was “(446) percent of the wild-type phenotype”, the “Mitochondrial complex II activity without exogenous Q1” value ([12]; mclk1 −/− ES cells grown with the supplement) was 9.1 ± 0.5 nmol/min/mg protein and the “Mitochondrial complex II activity with exogenous Q1” value ([12]; mclk1 −/− ES cells grown with the supplement, Q1 added in vitro) was 39.0 ± 3.5 nmol/min/mg protein. The “Mitochondrial complex II activity with exogenous Q1, percent of the wild-type phenotype” value [12, 13] was “(64) percent of the wild-type phenotype”, the “Mitochondrial complex II activity without exogenous Q1, percent of the wild-type phenotype” value [12, 13] was “(60) percent of the wild-type phenotype” and the “Resistance to menadione [% viability]” value [8] was 24 ± 2.9 % viability. For the same compound, the “Resistance to menadione, percent” value [8] was “(105) percent of the wild-type phenotype”, the “Resistance to menadione [% viability]” value [9] was 91.3 ± 3.4 % viability and the “Resistance to menadione, percent” value [9] was “(403) percent of the wild-type phenotype”. For the same compound, the “Cell multiplication, percent” value [10] was “(100) percent of the wild-type phenotype”, the Cell multiplication [10] was 25.3 ± 5.5 ×10^5 cells and the “Cell multiplication, percent” value [11] was “(69) percent of the wild-type phenotype”. The Cell multiplication [11] was 17.5 ± 0.4 ×10^5 cells.
COc1ccc(C[C@H]2NC[C@H](O)[C@H]2OC(C)=O)cc1 [anisomycin] was tested, and the “Sensitivity of mclk1 −/− ES cells” value [1] was “resistant”.
With CC1=CC(=O)c2ccccc2C1=O [menadione] the “Sensitivity of mclk1 −/− ES cells” value [1] was “resistance”, the “Resistance to menadione [% viability]” value [8] was 22.7 ± 5.4 % viability and the “Resistance to menadione, percent” value [8] was “(100) percent of the wild-type phenotype”. For the same compound, the “Resistance to menadione [% viability]” value [9] was 68.4 ± 5.4 % viability and the “Resistance to menadione, percent” value [9] was “(304) percent of the wild-type phenotype”.
With CC1=C(/C=C/C(C)=C/C=C/C(C)=C/C(=O)O)C(C)(C)CCC1 [all-trans retinoic acid] the “Sensitivity of mclk1 −/− ES cells” value [1] was “resistant”.
